Laboratory results published in US20210318318A1, “Kinase Activity In Tumors” (Institute For Cancer Research d/b/a The Research Institute …, priority 2018, published 2021).

Experiments:
[1] = test system: FAK1, MLC and Paxillin phosphorylation; FAK1 and CHEK1 protein levels; assay: Western blot of signaling in inhibitor-treated HGSOC cells; format: cell-based, human; settings: HGSOC (COV362) cells, increasing doses 0.5, 1 or 3 μM, 48 hours
Procedure: COV362 cells were treated with 0.5, 1 or 3 μM of A-674563 or SB-772077 for 48 hours and signaling monitored by western blot.
Samples were harvested in MIB lysis buffer, subjected to SDS-PAGE […] and transferred to PVDF membranes before western blotting with primary antibodies. For pMYPT and pMLC blots, cells were harvested in a buffer containing 1% (w/v) SDS, 50 mM Tris pH 7.5 supplemented with protease and phosphatase inhibitors buffer and were passed through QIAshredder columns (Qiagen, 79654), (Unbekandt et al., Cell Commun. Signal., 2014, 12, 54). For the list of primary antibodies used, see Table 4. Secondary HRP-anti-rabbit and HRP-anti-mouse were obtained from ThermoFisher Scientific. SuperSignal West Pico and Femto Chemiluminescent Substrates (Thermo) were used to visualize blots.

ROCK2 = target: T1, ROCK2 (Homo sapiens, UniProt O75116); assay: MIB/MS kinome profiling of inhibitor-treated OVSAHO cells; format: cell-based; settings: 2 μM, 4 hours
T1 construct: endogenous in cells; host or cells: OVSAHO
T1 sequence (O75116 whole entry): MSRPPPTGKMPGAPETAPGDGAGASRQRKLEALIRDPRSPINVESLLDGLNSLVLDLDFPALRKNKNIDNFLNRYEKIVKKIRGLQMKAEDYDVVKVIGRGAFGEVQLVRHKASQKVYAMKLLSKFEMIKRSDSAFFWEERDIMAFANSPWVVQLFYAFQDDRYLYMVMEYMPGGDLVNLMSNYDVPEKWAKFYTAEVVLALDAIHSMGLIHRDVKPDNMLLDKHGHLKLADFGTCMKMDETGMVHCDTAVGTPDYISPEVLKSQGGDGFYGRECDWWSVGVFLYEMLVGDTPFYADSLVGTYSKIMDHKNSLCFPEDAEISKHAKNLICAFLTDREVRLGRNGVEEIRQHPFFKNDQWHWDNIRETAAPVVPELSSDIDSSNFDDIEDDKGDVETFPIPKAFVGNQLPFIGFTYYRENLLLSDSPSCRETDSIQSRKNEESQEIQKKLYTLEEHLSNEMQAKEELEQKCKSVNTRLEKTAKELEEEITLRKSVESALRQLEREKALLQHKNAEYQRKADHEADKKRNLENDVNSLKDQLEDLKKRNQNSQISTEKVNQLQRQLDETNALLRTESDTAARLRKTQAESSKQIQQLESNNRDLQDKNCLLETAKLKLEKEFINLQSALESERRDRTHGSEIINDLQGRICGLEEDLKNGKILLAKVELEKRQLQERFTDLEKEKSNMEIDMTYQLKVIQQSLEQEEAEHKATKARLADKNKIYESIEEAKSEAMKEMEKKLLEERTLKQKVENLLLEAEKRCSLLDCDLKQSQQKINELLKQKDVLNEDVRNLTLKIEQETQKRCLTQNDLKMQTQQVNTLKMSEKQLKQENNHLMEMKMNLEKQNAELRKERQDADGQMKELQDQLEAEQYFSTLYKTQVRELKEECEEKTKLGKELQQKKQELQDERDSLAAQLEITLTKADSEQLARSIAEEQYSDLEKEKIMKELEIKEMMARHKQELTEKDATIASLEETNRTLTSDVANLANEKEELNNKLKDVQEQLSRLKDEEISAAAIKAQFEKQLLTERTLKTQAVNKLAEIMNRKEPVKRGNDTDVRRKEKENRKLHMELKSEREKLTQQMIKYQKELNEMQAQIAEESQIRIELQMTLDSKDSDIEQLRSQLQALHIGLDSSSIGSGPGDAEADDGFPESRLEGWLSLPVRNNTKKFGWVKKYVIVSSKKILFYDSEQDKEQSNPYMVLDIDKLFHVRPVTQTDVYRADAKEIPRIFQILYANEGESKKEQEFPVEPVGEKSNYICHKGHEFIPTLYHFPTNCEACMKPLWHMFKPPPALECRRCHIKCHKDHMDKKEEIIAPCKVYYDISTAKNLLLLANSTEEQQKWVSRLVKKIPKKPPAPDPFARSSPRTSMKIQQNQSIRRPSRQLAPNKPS
Procedure: (§1) OVSAHO cells were treated with 2 μM of inhibitor for 4 hours and analyzed by MIB/MS. Scatterplot depicts difference in kinase MIB-binding of drug treated relative to control DMSO as determined by Students T-test.
(§2) MIB-based kinome profiling was performed on several of these molecules in HGSOC cells to determine kinome-wide inhibition profiles.
Experiments using MIB/MS were performed as previously described (Duncan et al., Cell, 2012, 149, 307-321; and Kurimchak et al., Cell Reports, 2016, 16, 1273-1286). Briefly, cells or tumors were lysed on ice in buffer containing 50 mM HEPES (pH 7.5), 0.5% Triton X-100, 150 mM NaCl, 1 mM EDTA, 1 mM EGTA, 10 mM sodium fluoride, 2.5 mM sodium orthovanadate, 1× protease inhibitor cocktail (Roche), and 1% each of phosphatase inhibitor cocktails 2 and 3 (Sigma). Particulate was removed by centrifugation of lysates at 13,000 rpm for 10 minutes at 4° C. and filtration through 0.2 μm syringe filters. Protein concentrations were determined by BCA analysis (Thermo). To compare kinome signatures within and across such large sample sizes, a super-SILAC method was designed (Neubert et al., Nat. Meth., 2010, 7, 361-362) consisting of a cocktail of cancer cell lines that encompasses the activity of the “cancer kinome” to be used as a control for individual samples. […] An equal amount of the HKS was added to the non-labeled sample (cell, tumor or normal tissue) providing a quantitative strategy to compare kinome activity/levels across samples, amongst treatments and, importantly, across time. […]
(§3) Proteolytic peptides were resuspended in 0.1% formic acid and separated with a Thermo RSLC Ultimate 3000 on a Thermo Easy-Spray C18 PepMap 75 μm×50 cm C-18 2 μm column with a 240 minute gradient of 4-25% acetonitrile with 0.1% formic acid at 300 nL/min and 50° C. Eluted peptides were analyzed by a Thermo Q Exactive plus mass spectrometer utilizing a top 15 methodology in which the 15 most intense peptide precursor ions were subjected to fragmentation.

MRCKA = MRCKA (Homo sapiens, UniProt Q5VT25); assay: as above; format: cell-based; parameters: endogenous in cells; host or cells: OVSAHO; settings: 2 μM, 4 hour treatment
MRCKA, sequence (Q5VT25 whole entry): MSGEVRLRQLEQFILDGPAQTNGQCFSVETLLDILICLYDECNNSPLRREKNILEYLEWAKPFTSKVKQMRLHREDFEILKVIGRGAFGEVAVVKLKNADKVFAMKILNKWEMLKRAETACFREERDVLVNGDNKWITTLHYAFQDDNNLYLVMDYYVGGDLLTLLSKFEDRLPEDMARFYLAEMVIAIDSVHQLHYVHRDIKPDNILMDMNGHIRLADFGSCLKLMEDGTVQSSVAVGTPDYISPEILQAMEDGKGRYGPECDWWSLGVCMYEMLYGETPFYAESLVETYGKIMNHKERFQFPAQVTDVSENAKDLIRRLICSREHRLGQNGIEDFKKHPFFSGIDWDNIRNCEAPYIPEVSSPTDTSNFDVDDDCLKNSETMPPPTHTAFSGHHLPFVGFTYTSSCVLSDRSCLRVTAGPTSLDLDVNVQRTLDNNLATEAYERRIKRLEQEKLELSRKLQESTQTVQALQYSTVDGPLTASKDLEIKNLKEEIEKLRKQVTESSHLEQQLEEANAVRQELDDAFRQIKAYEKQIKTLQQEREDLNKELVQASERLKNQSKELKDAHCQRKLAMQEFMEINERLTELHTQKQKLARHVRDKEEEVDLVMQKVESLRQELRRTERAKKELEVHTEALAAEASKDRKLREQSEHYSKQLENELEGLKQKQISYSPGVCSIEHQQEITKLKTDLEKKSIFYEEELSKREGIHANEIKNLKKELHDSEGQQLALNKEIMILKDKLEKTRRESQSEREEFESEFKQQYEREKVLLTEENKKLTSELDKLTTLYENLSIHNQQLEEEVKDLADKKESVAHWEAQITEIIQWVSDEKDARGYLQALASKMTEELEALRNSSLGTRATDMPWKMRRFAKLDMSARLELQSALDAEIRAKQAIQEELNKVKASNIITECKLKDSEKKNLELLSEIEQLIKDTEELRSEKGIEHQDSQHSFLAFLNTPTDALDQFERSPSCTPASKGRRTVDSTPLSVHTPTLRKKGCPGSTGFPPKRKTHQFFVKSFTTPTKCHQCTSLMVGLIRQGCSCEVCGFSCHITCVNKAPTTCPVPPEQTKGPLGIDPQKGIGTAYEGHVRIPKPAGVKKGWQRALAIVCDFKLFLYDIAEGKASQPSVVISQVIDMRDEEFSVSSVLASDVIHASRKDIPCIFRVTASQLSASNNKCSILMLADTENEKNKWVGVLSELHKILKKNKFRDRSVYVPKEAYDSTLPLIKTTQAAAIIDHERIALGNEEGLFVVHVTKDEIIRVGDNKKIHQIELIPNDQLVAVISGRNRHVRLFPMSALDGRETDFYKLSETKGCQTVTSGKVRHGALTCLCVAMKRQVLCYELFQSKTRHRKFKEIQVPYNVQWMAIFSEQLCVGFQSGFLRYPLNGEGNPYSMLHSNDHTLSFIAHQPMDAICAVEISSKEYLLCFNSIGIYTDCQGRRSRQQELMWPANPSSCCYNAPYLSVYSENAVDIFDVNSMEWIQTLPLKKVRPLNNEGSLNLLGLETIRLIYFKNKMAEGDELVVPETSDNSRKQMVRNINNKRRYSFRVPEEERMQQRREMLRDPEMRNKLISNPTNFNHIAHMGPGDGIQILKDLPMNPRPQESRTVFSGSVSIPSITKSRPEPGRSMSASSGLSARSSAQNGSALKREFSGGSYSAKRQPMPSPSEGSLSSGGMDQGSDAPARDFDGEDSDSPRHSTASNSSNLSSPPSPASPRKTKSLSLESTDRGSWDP
Procedure: (§4) OVSAHO cells were treated with inhibitors at a dose of 2 μM for 4 hours and kinase inhibition profiles determined by MIB/MS. Bar graph depicts % of kinase bound to MIBs relative to DMSO control as determined by label free quantitation.
as §1, §2
(§5) Experiments using MIB/MS were performed as previously described (Duncan et al., Cell, 2012, 149, 307-321; and Kurimchak et al., Cell Reports, 2016, 16, 1273-1286). Briefly, cells or tumors were lysed on ice in buffer containing 50 mM HEPES (pH 7.5), 0.5% Triton X-100, 150 mM NaCl, 1 mM EDTA, 1 mM EGTA, 10 mM sodium fluoride, 2.5 mM sodium orthovanadate, 1× protease inhibitor cocktail (Roche), and 1% each of phosphatase inhibitor cocktails 2 and 3 (Sigma). Particulate was removed by centrifugation of lysates at 13,000 rpm for 10 minutes at 4° C. and filtration through 0.2 μm syringe filters. Protein concentrations were determined by BCA analysis (Thermo). To compare kinome signatures within and across such large sample sizes, a super-SILAC method was designed (Neubert et al., Nat. Meth., 2010, 7, 361-362) consisting of a cocktail of cancer cell lines that encompasses the activity of the “cancer kinome” to be used as a control for individual samples. Five cancer cell lines were selected from the NCI-60 panel (UACC257, MOLT4, COL0205, ACHN and PC3) that differed in their origin, gene expression patterns and mutation status. The cancer cell lines were labeled using SILAC and mixed equally providing a diverse SILAC ([^13C6,^15N4] arginine (Arg^10) and […] (Lys^8)) heavy kinome reference standard (HKS) to be used repeatedly in kinome profiling assays. An equal amount of the HKS was added to the non-labeled sample (cell, tumor or normal tissue) providing a quantitative strategy to compare kinome activity/levels across samples, amongst treatments and, importantly, across time. […]
as §3

MRCKB = target: T2, MRCKB (Homo sapiens, UniProt Q9Y5S2); assay: as above; format: cell-based; settings: 2 μM, 4 hour treatment
T2 construct: endogenous in cells; host or cells: OVSAHO
T2 sequence (Q9Y5S2 whole entry): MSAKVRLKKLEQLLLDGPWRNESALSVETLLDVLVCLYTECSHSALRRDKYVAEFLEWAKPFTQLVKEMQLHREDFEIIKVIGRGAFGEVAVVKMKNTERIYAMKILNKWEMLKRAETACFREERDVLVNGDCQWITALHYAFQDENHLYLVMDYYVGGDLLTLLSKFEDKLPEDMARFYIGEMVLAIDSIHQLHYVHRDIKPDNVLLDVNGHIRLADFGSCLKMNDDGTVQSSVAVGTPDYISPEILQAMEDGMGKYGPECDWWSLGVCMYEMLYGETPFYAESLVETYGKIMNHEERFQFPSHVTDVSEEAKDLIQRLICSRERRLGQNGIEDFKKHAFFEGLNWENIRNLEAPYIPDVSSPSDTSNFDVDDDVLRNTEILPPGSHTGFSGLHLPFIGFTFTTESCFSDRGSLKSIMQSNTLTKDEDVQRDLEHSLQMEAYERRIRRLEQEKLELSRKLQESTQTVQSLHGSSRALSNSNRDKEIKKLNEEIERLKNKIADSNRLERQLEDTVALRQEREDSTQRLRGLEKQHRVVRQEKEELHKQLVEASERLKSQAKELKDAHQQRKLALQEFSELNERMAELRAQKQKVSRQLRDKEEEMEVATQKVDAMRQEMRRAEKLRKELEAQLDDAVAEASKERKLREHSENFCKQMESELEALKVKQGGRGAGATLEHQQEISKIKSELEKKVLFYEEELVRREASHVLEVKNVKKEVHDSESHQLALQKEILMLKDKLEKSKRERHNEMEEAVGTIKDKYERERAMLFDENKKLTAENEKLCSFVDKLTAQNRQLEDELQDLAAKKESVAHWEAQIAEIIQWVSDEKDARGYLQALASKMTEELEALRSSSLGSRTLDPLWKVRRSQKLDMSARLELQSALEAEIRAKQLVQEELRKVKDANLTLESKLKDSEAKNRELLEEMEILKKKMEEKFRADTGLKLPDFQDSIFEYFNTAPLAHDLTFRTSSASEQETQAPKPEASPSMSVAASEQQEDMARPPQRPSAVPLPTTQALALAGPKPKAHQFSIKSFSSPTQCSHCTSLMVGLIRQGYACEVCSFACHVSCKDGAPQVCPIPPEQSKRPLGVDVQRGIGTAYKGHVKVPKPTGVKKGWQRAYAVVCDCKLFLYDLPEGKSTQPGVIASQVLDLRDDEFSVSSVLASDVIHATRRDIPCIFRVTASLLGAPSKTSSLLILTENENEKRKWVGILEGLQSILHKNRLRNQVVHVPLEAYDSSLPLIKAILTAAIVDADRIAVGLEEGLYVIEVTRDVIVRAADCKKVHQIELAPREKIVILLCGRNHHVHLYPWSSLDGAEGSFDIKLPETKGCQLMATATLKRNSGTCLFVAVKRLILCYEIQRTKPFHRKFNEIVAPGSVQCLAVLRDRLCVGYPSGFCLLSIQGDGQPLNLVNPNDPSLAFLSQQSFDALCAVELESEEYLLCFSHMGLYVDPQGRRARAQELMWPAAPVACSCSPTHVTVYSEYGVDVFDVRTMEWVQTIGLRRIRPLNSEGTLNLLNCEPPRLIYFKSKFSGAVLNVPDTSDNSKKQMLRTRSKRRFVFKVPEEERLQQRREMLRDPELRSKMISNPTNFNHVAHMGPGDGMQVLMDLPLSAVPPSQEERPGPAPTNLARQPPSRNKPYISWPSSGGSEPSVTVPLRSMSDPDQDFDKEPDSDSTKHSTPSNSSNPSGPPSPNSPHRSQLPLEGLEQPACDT
Procedure: as §4, §1, §2, §5, §3

[2] = test system: carboplatin-resistant COV362 cells; assay: Carboplatin response in cells depleted of MRCKA by siRNA; format: cell-based, human
Procedure: (§6) Cells transfected with control or MRKCA siRNAs were treated with increasing doses of carboplatin. Cell viability was assessed by Cell Titer Glo according to manufacturer's instructions. Data represent the mean of six replicates. GR50 were determined using PRISM.
(§7) To explore if blocking dark kinases AAK1, STK38 or MRCKA activity in combination with current therapies improves drug efficacy, OVCAR4 cells depleted of AAK1, STK38 or MRCKA were treated with increasing doses of carboplatin, olaparib, JQ1, or a variety of kinase inhibitors in clinical trials for HGSOC.
siRNA transfections were performed using 25 nM siRNA duplex and the reverse transfection protocol. 3000-5000 cells per well were added to 96 well plates with media containing the siRNA and transfection reagent (Lipofectamine RNAiMax) according to the manufacturer's instructions. In experiments where inhibitors were used, the inhibitor was added at the time of transfection. Cells were allowed to grow for 72-120 hours post-transfection prior to CellTiter Glo (Promega) analysis. Two-to-three independent experiments were performed with each cell line and siRNA. Students t tests were performed for statistical analyses and p values ≤0.05 were considered significant. […]

OVCAR4 cells = assay: Drug growth inhibition in cells depleted of dark kinases by siRNA (Cell Titer Glo); format: cell-based, human; settings: increasing doses of drug
Procedure: OVCAR4 cells were transfected with control nontargeting or dark kinase siRNAs and treated with escalating doses of appropriate drugs.
as §7
(§8) siRNA transfections were performed using 25 nM siRNA duplex and the reverse transfection protocol. 3000-5000 cells per well were added to 96 well plates with media containing the siRNA and transfection reagent (Lipofectamine RNAiMax) according to the manufacturer's instructions. In experiments where inhibitors were used, the inhibitor was added at the time of transfection. Cells were allowed to grow for 72-120 hours post-transfection prior to CellTiter Glo (Promega) analysis. Two-to-three independent experiments were performed with each cell line and siRNA. Students t tests were performed for statistical analyses and p values ≤0.05 were considered significant. For western blot studies, the same procedure was performed with volumes and cell numbers proportionally scaled to a 60 mm or 10 cm dish, and cells were collected 24-72 hours post-transfection. siRNA product numbers and manufacturers are listed in Table 5.

HGSOC cells = assay: Drug response in cells depleted of MRCKA by siRNA (Cell Titer Glo, cleaved PARP blots); format: cell-based, human
Procedure: as §6
Cells transfected with control or MRKCA siRNAs were treated with increasing doses of olaparib. Cell viability was assessed by Cell Titer Glo according to manufacturer's instructions. Data represent the mean of six replicates. GR50 were determined using PRISM.
as §7, §8

## CCn1c(-c2nonc2N)nc2cncc(C(=O)N3CC[C@H](N)C3)c21 [SB-772077-B]
[1]
  FAK1, MLC and Paxillin phosphorylation: reduced
ROCK2
  MIB-binding of ROCK2: reduction in MIB-binding

## Fc1ccc(Cl)cc1-c1nc(Nc2ccncc2)c2nccnc2n1 [SD-208]
MRCKA
  MIB-binding of MRCKA relative to DMSO: no effect
MRCKB
  MIB-binding of MRCKB relative to DMSO: no effect

## N.N.O=C([O-])C1(C(=O)[O-])CCC1.[Pt+2] [carboplatin]
[2]
  cell growth and apoptosis, MRCKA knockdown in combination with drug: inhibited cell growth and induced apoptosis
OVCAR4 cells
  growth inhibition by drug with MRCKA knockdown relative to non-targeting control siRNA: enhanced growth inhibition
HGSOC cells; HGSOC cell lines
  apoptosis (cleaved PARP) of drug plus MRCKA depletion: induced apoptosis better than individual therapies
HGSOC cells; additional HGSOC cell lines, increasing doses
  effect of drug on cell viability with MRCKA depletion: enhanced the effect of carboplatin

## O=C(c1cc(Cc2n[nH]c(=O)c3ccccc23)ccc1F)N1CCN(C(=O)C2CC2)CC1 [olaparib]
OVCAR4 cells
  growth inhibition by drug with MRCKA knockdown relative to non-targeting control siRNA: enhanced growth inhibition
HGSOC cells; HGSOC cells, increasing doses
  growth inhibitory and apoptotic response to drug with MRCKA knockdown: improved the growth inhibitory and apoptotic response
